From US10538506B2, “Crystal form of a potassium-competitive acid blocker and preparation method thereof” (Jiangsu Hansoh Pharmaceutical Group Co., Ltd., priority 2014, dated 2020)

What was measured:
[1] = Long-term stability testing, inspection items; format: physicochemical; details: for Appearance / Content (%) / HPLC identification / Moisture (%) / Particle size d (0.5) / Particle size d (0.9) / Related substance (%) Maximum unknown single impurity / Related substance (%) Total impurities: 30° C./65% humidity
Experimental: The samples were prepared according to the method of Example 1, and then were placed under the long-term stability conditions (temperature: 30° C.±2° C.; humidity: 65%±5%) for six months.

[2] = Hygroscopicity: weight gain due to moisture absorption; format: physicochemical
Experimental: The samples were prepared according to the method of Example 1, and the following tests were carried out:
(1) placing the sample at 25° C. and 75% humidity;
(2) placing the sample at 25° C. and 92.5% humidity.
The aforementioned two samples were taken and tested at different time points to investigate weight gain of the samples due to moisture absorption.

Appearance ([1]; 0 months): White powder
Content (%) ([1]; 0 months): 99.6%
HPLC identification ([1]; 0 months): Consistent
Moisture (%) ([1]; 0 months): 0.04%
Particle size d (0.5) ([1]; 0 months): d (0.5) ≤15 μm
Particle size d (0.9) ([1]; 0 months): d (0.9) ≤30 μm
Related substance (%) Maximum unknown single impurity ([1]; 0 months): 0.03%
Related substance (%) Total impurities ([1]; 0 months): 0.12%
Appearance ([1]; 3 months): White powder
Content (%) ([1]; 3 months): 100.0%
HPLC identification ([1]; 3 months): Consistent
Moisture (%) ([1]; 3 months): 0.08%
Particle size d (0.5) ([1]; 3 months): d (0.5) ≤15 μm
Particle size d (0.9) ([1]; 3 months): d (0.9) ≤30 μm
Related substance (%) Maximum unknown single impurity ([1]; 3 months): 0.04%
Related substance (%) Total impurities ([1]; 3 months): 0.13%
Appearance ([1]; 6 months): White powder
Content (%) ([1]; 6 months): 99.7%
HPLC identification ([1]; 6 months): Consistent
Moisture (%) ([1]; 6 months): 0.08%
Particle size d (0.5) ([1]; 6 months): d (0.5) ≤15 μm
Particle size d (0.9) ([1]; 6 months): d (0.9) ≤30 μm
Related substance (%) Maximum unknown single impurity ([1]; 6 months): 0.03%
Related substance (%) Total impurities ([1]; 6 months): 0.13%
Stability ([1]; long-term storage conditions, 30° C.±2° C., humidity 65%±5%, six months, fumarate): good stability
weight gain due to moisture absorption (%) ([2]; 25° C./RH 75%, 5 days): 0.01%
weight gain due to moisture absorption (%) ([2]; 25° C./RH 75%, 10 days): 0.13%
weight gain due to moisture absorption (%) ([2]; 25° C./RH 75%, 30 days): 0.12%
weight gain due to moisture absorption (%) ([2]; 25° C./RH 92.5%, 5 days): 0.17%
weight gain due to moisture absorption (%) ([2]; 25° C./RH 92.5%, 10 days): 0.12%
weight gain due to moisture absorption (%) ([2]; 25° C./RH 92.5%, 30 days): 0.19%
Structure (SMILES): CNCc1cc(-c2ccccc2F)n(S(=O)(=O)c2cccnc2)c1.O=C(O)/C=C/C(=O)O [Example 1, 1-[5-(2-fluorophenyl)-1-(pyridin-3-ylsulfonyl)-1H-pyrrol-3-yl]-N-methylmethanamine fumarate]
